The values that follow come from patent publication US7091192B1, “Linear cyclodextrin copolymers” (California Institute of Technology, priority 1998, dated 2006).

For one data set, the system named is KB cell line. Kind of data set: MTT toxicity assay, small molecule delivery to cultured cells (KB). How it is done: (§1) Media containing doxorubicin and doxorubicin/CD-polymer complexes at various concentrations were applied to cultured cell lines. After 5 hours, the media was removed and replaced with fresh media. […] ([…], “Culture of Animal Cells”, 3rd ed., Wiley-Liss: New York (1994)). […] For receptor-mediated delivery, a ligand such a folate is covalently attached to the CD-polymer used for doxorubicin complexation.

Data set [1] deals with KB-VI (a multidrug resistant derivative of KB) cell line. Description: MTT toxicity assay, small molecule delivery to cultured cells (KB-VI). As to the method: as §1
For data set [2] the following is noted: pH 7.1; Husain et al., Applied Spectroscopy 1992; cited from earlier work.
Where [3] appears, read: Homo sapiens, KB, 5 h, read-out: IC50 (μM of doxorubicin).

As a reminder, the IC50 is the concentration at which inhibition is half-maximal. Consider `COc1cccc2c1C(=O)c1c(O)c3c(c(O)c1C2=O)C[C@@](O)(C(=O)CO)C[C@@H]3O[C@H]1C[C@H](N)[C@H](O)[C@H](C)O1` [doxorubicin], for which the half-inhibitory concentration (IC50) was around 0.1 µM with KB cell line (setting [3]) and around 10 µM in data set [1] (setting [3]).

For “β-cyclodextrin(cystamine)-DTBP Copolymer [Copolymer 15]”, in the data set on KB cell line, the “Toxicity to KB cells in the absence of doxorubicin” value was “not toxic”. Also, the “Toxicity to KB-VI cells in the absence of doxorubicin” value in data set [1] is reported as “not toxic”.

On to `OC[C@H]1O[C@@H]2O[C@H]3[C@H](O)[C@@H](O)[C@@H](O[C@H]4[C@H](O)[C@@H](O)[C@@H](O[C@H]5[C@H](O)[C@@H](O)[C@@H](O[C@H]6[C@H](O)[C@@H](O)[C@@H](O[C@H]7[C@H](O)[C@@H](O)[C@@H](O[C@H]8[C@H](O)[C@@H](O)[C@@H](O[C@H]1[C@H](O)[C@H]2O)O[C@@H]8CO)O[C@@H]7CO)O[C@@H]6CO)O[C@@H]5CO)O[C@@H]4CO)O[C@@H]3CO` [β-CD, β-cyclodextrin], for which the “Association constant between β-CD and doxorubicin” value in data set [2] is 210 M⁻¹.
